Read-outs that look alike come from different tables or passages of the source.
Legend:
[1] = molecular target: T1, human α5β3γ2L GABAA receptors expressed in HEK-293 cells (Homo sapiens, UniProt P28472+P31644); assay: Whole-cell patch clamp of GABA/THDOC-evoked currents, extra-synaptic protocol (Dynaflow); type: cell-based; conditions: for Current with GR3027 alone: baseline holding current +2.15 ± 1.4 pA, n = 9, not significant
T1 construct: The coding regions of the human GABAA receptor subunits were then amplified by PCR; expressed in transfected cells; host or cells: HEK-293 (permanently transfected, pcDNA3.1 vectors, CMV promoter)
T1 sequence (P31644 32-462): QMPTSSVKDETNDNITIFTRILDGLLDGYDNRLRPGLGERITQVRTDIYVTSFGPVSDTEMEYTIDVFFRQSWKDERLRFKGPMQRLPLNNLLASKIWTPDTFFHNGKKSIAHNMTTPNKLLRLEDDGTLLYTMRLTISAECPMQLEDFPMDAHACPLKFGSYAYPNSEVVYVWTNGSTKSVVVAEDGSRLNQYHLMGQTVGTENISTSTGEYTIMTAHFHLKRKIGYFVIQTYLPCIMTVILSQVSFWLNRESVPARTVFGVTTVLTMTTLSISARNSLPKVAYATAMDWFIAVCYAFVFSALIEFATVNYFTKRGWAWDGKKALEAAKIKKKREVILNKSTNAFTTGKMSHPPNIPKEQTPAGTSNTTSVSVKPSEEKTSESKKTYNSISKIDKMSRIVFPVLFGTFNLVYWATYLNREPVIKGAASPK
T1 sequence (P28472 26-473 isoform P28472-2 limits assumed): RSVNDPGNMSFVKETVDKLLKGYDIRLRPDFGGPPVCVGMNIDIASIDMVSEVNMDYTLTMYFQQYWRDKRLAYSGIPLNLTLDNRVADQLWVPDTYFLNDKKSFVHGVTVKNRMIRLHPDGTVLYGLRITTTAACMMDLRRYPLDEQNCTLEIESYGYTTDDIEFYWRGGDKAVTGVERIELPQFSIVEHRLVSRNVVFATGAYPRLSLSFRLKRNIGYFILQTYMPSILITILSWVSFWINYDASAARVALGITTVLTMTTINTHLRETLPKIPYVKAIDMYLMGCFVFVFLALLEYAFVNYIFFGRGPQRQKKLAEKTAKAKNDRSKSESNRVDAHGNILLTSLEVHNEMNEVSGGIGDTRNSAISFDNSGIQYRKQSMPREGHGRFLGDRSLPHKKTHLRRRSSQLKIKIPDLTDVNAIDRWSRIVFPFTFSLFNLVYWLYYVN
T1 sequence (P18507 40-475 partner): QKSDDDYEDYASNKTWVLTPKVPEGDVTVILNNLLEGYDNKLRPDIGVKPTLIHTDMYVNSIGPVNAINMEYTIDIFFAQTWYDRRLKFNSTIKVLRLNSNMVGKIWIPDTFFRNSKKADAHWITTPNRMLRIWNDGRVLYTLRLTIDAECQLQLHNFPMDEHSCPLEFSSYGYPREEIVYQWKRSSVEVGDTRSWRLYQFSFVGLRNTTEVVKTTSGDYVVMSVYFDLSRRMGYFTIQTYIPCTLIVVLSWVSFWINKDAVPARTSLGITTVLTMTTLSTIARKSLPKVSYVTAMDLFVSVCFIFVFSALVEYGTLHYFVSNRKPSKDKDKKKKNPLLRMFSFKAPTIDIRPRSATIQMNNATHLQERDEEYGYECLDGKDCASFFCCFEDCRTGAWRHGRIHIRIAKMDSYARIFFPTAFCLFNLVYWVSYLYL
Description: Wild-type HEK-293 cells (passage 4, originating from Pasteur Institute, Paris, France) were permanently transfected with vectors including the human CMV promoter for the constitutive expression of the human α5, β3, and γ2L GABAA receptor subunits (α5β3γ2L) or the human α1, β2, and γ2L GABAA receptor subunits (α1β2γ2L). The production of the plasmids used in the sub-cloning of the different subunits is published in Rahman et al..
The electrophysiological recordings from HEK-293 cells were performed with the whole-cell voltage clamp technique, at room temperature (21–23 °C). After compensation for liquid junction potential, a steady holding potential of −17 mV was used in all experiments. Patch pipettes were pulled from borosilicate glass (Bergman Labora AB, Danderyd, Sweden) and polished to a resistance of 2–5 MΩ when filled with intracellular solution and immersed in a bath (extracellular) solution (for solutions, see below). The pipette tips were filled by immersion in standard intracellular solution and subsequent back-filling with intracellular solution. The recordings were made using an Axopatch 200B amplifier and a Digidata 1322A (Axon Instruments, Foster City, CA, USA) controlled via a Pentium processor-based personal computer. Data were acquired using the pCLAMP software sampled at 10 kHz, filtered at 2–10 kHz, and analyzed with Clampfit (versions 9.0, both from Axon Instruments, Foster City, CA, USA). A series resistance between the pipette and cell membrane not higher than 20 MΩ was accepted. No series resistance compensation was used. The stability of series resistance was monitored repeatedly from the time course of capacitative transients during the experiments. The measured liquid junction potential between extracellular and intracellular solutions was subtracted from all data presented, as previously described. All experiments were performed at room temperature (21–23 °C).
In all electrophysiological experiments, tetrahydro-deoxycorticosterone (THDOC) was used as a positive GABAA receptor steroid modulator (PAM) to mimic the effect of AP on central GABAA channels. […] THDOC (Sigma Chemical Co., St. Louis, MO, USA) and GR3027 (3α-ethynyl, 3β-hydroxyl, 5α-androstan-17-oxime, golexanolone, Umecrine Cognition AB, Stockholm, Sweden) were dissolved in dimethyl sulfoxide (DMSO) using ultrasound, for the preparation of solutions containing a final DMSO concentration of 0.1%. GR3027 was discovered within a series of molecules developed and patented by T. Bäckström and G. Ragagnin, (patent WO 2008/063128). All solutions were complemented with DMSO to achieve the same final concentration as in the steroid-containing test solution. GABA (Sigma Chemical Co., St. Louis, MO, USA) was first prepared as a stock solution (dissolved in EC with ultrasonic treatment) to the desired concentrations, with the corresponding final concentrations of test solutions (30 µM and 0.3 µM; see protocols below). GABA was added to the experimental solution without a change in osmolarity.
The experimental protocols were designed to mimic the physiological conditions of the tonic (extra-synaptic) and phasic (synaptic) activation of GABAA receptors observed in central neurons, depending on the subunit compositions, respectively. GABA-evoked currents in HEK-293 cells expressing extra-synaptic (α5β3γ2L) or synaptic (α1β2γ2L) types of GABAA receptors were studied using the conventional whole-cell patch clamp technique. To mimic the physiological GABA exposure, the HEK-293 cells expressing α1β2γ2L GABAA receptors were exposed to short applications (40 ms) of 30 µM GABA, whereas HEK-293 cells expressing α5β3γ2L GABAA receptors were exposed to prolonged applications (6 s) of 0.3 µM GABA, either in the absence or presence of THDOC and/or GR3027.

male Wistar rats = assay: AP-induced loss of righting reflex (LoR); type: in vivo, rat
Description: Nanomolar concentrations of AP injected intravenously dramatically potentiate the GABA response at the GABAA receptor [1, 20]. […] Under normal circumstances, the righting reflex immediately corrects the orientation of the body when it is outside of its normal upright position, such as that of a rat that is placed on its side. When the rat is awake, it immediately turns around to be standing on its paws when dropped from a low distance above a surface. This ability can be lost with the injection of AP. Twelve male Wistar rats, with a weight of 267–307 g at the test occasion, were included in the study (Taconics, Denmark). The rats were housed at three animals per cage, with a normal day/night light cycle and ad libitum access to food and water (except during the short experiment, approximately 10 min). The week before the study, the animals were handled daily, to avoid stress during the experimental session. The handling included activities used during the test, i.e., holding, tail warming in water, and wrapping in op-blankets. AP (Umecrine AB) and GR3027 (Umecrine Cognition AB) were dissolved at a concentration of 2 mg/mL in 10% 2-hydroxypropyl-β-cyclodextrin (Sigma), respectively, by sonication. To measure the antagonism of AP-induced LoR, GR3027 was mixed with the AP solution at different ratios of AP to GR3027 1: 2.5–1:7.5. […]

C#C[C@]1(O)CC[C@@]2(C)[C@@H](CC[C@@H]3[C@@H]2CC[C@]2(C)/C(=N/O)CC[C@@H]32)C1 [GR3027, 3α-ethynyl-3β-hydroxyl-5α-androstan-17-oxime]
IC50 [1]: 344 nM | Imax for decrease of AUC of THDOC-potentiated GABA-mediated response ([1]; 200 nM THDOC + 0.3 µM GABA): −35% | Imax for decrease of peak current amplitude of THDOC-potentiated GABA-mediated response ([1]; 200 nM THDOC + 0.3 µM GABA): −37% | Imax for reduction of THDOC-mediated outward current shift ([1]; 200 nM THDOC, absence of GABA): −33% | Mean change of peak current amplitude of GABA-mediated response ([1]; 1 µM GR3027 + 0.3 µM GABA, absence of THDOC, SEM 0.9, p = 0.02, n = 7): −7.0% | Mean change of AUC of GABA-mediated response ([1]; 1 µM GR3027 + 0.3 µM GABA, absence of THDOC, SEM 1.5, NS, n = 7): −3.8% | Effect on THDOC-induced current response (absence of GABA) ([1]; 1 µM GR3027, 1 µM THDOC): significantly reduced | Effect on baseline holding current ([1]; 1 µM GR3027, absence of THDOC): did not change the baseline holding current | Current with GR3027 alone ([1]; 1 µM GR3027, no GABA or THDOC): +1.6 ± 1.4 pA | Current with GR3027 alone ([1]; 3 µM GR3027, no GABA or THDOC): +0.73 ± 0.4 pA | Effect on THDOC-induced current response (absence of GABA) ([1]; 3 µM GR3027, 0.1, 0.3, 0.6 and 1 µM THDOC): significantly reduced | IC50 ([1]; IC50 for decrease of AUC of THDOC-potentiated GABA-mediated response, 200 nM THDOC + 0.3 µM GABA, n = 4-14): 341 nM | IC50 ([1]; IC50 for decrease of peak current amplitude of THDOC-potentiated GABA-mediated response, 200 nM THDOC + 0.3 µM GABA, n = 4-14): 563 nM | Dosage of GR3027 that antagonizes AP-induced loss of righting reflex (male Wistar rats; AP 2 mg/kg i.v., in 10% 2-hydroxypropyl-β-cyclodextrin): 15 mg/kg | Effect on general condition of the rat (male Wistar rats; GR3027 15 mg/kg): did not affect the general condition

Reference: PMC10604444, “Extra-Synaptic GABAA Receptor Potentiation and Neurosteroid-Induced Learning Deficits Are Inhibited by GR3027, a GABAA Modulating Steroid Antagonist” (Biomolecules, 2023)
